Patent US7714140B2, “1,2 Benzoisothiazole derivative, and agricultural or horticultural plant disease- controlling agent” (Kumiai Chemical Industry, Co. Ltd., priority 2006, dated 2010)

Key:
Pyricularia oryzae = type: in vivo; conditions: paddy rice (Aichi Asahi), root treatment with wettable powder, active ingredient 30 g per 10 ares; inoculated 26 days after treatment; lesions counted 8 days after inoculation
[1] = system: Colletotrichum orbiculare; experiment: Test for preventive effect for cucumber anthracnose; conditions: cucumber (Sagamihanjiro), soil drench 10 ml, inoculated 7 days later, lesions counted 7 days after
Description: Four cucumber seeds (variety: Sagamihanjiro) were sowed in a plastic cup of 5.5 cm in diameter, at a depth of 2 cm, and were grown in a greenhouse for 7 days. […] 10 ml of the dilution was poured into the soil at the root of young cucumber seedlings having cotyledons. 7 days later, a conidia suspension (10^5 to 10^6/ml) of Colletotrichum orbiculare which had been cultured in a PDA plate medium, was uniformly inoculated to the cucumber plant by hand spraying. The cup was allowed to stand in a moist chamber of 25° C. for 24 hours. Then, the cup was allowed to stand on a basin in a glass greenhouse and, 7 day later, the number of lesions of all cotyledons in pot was examined. A protective value was calculated from the expression 1 and evaluated according to the standard of Table 2.
Using a comparative compound shown below, a wettable powder was prepared according to Example 5. A control number thereof was calculated in the same manner as in the above Test Example.

[2] = concentration of active ingredient 1 ppm
[3] = concentration of active ingredient 10 ppm

Row | SMILES | Evaluation (protective value) (Pyricularia oryzae) | Evaluation (protective value) [1, 2] | Evaluation (protective value) [1, 3] | melting point
1 | O=S1(=O)N=C(OCc2ccncc2)c2ccccc21 [Comparative compound 1, reference compound] | C (protective value: less than 80.0% to 50.0% or more) | D (protective value: less than 50.0%) | B (protective value: less than 90.0% to 80.0% or more) | 
2 | C=CCOC1=NS(=O)(=O)c2ccccc21 [Probenazole, reference compound] | C (protective value: less than 80.0% to 50.0% or more) |  |  | 
3 | O=S1(=O)N=C(OCc2snc(Cl)c2Cl)c2ccccc21 [Compound No. 1, 3-(3,4-dichloroisothiazol-5-ylmethoxy)-1,2-benzoisothiazole 1,1-dioxide] | B (protective value: less than 90.0% to 80.0% or more) | A (protective value: 100% to 90.0% or more) | A (protective value: 100% to 90.0% or more) | 
4 | Cc1cc(COC2=NS(=O)(=O)c3ccccc32)sn1 [compound 5, 3-(3-methylisothiazol-5-ylmethoxy)-1,2-benzoisothiazole 1,1-dioxide] | B (protective value: less than 90.0% to 80.0% or more) | D (protective value: less than 50.0%) | A (protective value: 100% to 90.0% or more) | 202 to 204 °C
